Measurements: US11207320B2, “Compositions and methods for cancer expressing PDE3A or SLFN12” (The Broad Institute, Inc., priority 2015, dated 2021)

Tests used:
[1] = test system: HeLa cells; test: Compound sensitivity testing in cell lines (48 h viability); format: cell-based; settings: HeLa
Method: 1500 NCI-H1734 or 1000 A549 cells were plated in a 384-well plate in 40 μl of RPMI supplemented with 10% Fetal Bovine Serum and 1% Pen/Strep. 24 hours after plating, a compound-library of 1924 small molecules was added at a concentration of 10 μM. Staurosporine was used a positive control for cytotoxicity at a concentration of 10 μM, and DMSO was used a negative control at a concentration of 1%. All compounds were incubated for 48 hours with indicated small molecules. After 48 hours, 384-well plates were removed from the incubator and allowed to cool to room temperature for 20 minutes. Cell viability was assessed by adding 40 μl of a 25% CELLTITERGLO® (Promega) in PBS with a THERMO COMBI™ or multichannel-pipette and incubated for 10 minutes. The luminescence signal was read using a Perkin-Elmer EnVision. Viability percentage was calculated by normalizing to DMSO controls.
1000 HeLa (DMEM), 1000 A549 (RPMI), 500 MCF-7 (DMEM), 4000 PC3 (F12-K), 1000 NCI-H2122 (RPMI) or 1500 NCI-H1563 (RPMI) cells were plated in a 384-well plate in 40 μl of corresponding growth media supplemented with 10% Fetal Bovine Serum. 24 hours after plating, indicated compounds were added at indicated concentrations and incubated for 48 hours. Cell viability was assessed as described in Compound library screening in NCI-H1734 and A549 cell lines.

[2] = target: PDE3A (Homo sapiens, UniProt Q14432); test: Linker-affinity purification of molecular target of DNMDP and immunoblotting; format: binding; design: Immunoprecipitation of endogenous PDE3A in HeLa cells; endogenous in cells; host or cells: HeLa; settings: HeLa cell lysate, competitor 10 μM, immunoblot for PDE3A
Sequence of PDE3A (Q14432 whole entry): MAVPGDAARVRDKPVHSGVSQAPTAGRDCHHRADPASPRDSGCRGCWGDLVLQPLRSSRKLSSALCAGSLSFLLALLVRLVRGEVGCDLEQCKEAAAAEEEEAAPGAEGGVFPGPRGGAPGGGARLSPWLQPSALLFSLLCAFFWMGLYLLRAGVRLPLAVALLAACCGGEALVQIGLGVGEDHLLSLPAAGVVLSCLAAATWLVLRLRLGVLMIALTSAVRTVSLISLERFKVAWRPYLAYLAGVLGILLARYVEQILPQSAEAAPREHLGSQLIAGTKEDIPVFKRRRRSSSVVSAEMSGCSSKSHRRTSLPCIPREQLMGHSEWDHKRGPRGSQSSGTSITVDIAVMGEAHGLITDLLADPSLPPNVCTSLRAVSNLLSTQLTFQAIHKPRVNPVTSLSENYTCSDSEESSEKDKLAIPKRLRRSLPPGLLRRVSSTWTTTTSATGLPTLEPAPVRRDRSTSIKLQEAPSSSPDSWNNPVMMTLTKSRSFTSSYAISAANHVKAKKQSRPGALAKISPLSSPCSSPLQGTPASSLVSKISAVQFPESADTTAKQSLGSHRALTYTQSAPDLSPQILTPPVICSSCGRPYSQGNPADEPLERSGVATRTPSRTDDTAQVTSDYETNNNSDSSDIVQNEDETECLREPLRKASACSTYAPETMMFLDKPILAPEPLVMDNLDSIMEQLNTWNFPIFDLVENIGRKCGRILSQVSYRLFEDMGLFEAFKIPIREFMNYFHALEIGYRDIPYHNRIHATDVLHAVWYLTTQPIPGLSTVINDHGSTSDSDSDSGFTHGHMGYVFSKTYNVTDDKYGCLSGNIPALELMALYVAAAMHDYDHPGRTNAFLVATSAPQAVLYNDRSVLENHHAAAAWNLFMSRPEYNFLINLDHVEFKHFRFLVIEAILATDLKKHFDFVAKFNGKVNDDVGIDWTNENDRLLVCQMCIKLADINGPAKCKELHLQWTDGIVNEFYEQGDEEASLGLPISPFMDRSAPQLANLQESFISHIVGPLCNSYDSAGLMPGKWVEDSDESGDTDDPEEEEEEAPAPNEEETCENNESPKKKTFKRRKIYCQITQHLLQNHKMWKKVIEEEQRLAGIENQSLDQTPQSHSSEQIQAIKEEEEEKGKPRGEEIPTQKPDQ
Method: To identify the molecular target of DNMDP, an affinity purification was performed using an (R)-des-nitro-DNMDP solid-phase tethered linker analogue (FIG. 10A) incubated with HeLa cell lysate. […] It was competed for the molecular target by adding either an excess of trequinsin or separate enantiomers of DNMDP, where only the (R)-enantiomer was cytotoxic. […] Binding of PDE3A to the linker analogue was blocked by both trequinsin and (R)-DNMDP, but not by the non-cytotoxic enantiomer (S)-[…]. 9C). Thus both trequinsin and (R)-DNMDP prevented the binding of PDE3A to the tethered DNMDP analogue, and it was concluded that both molecules bind PDE3A directly. HeLa cells were washed with ice-cold PBS before lysed with NP-40 lysis buffer (150 mM NaCl, 10% glycerol, 50 mM Tris-Cl pH 8.0, 50 mM MgCl2, 1% NP-40) supplemented with EDTA-free protease inhibitors (Roche) and phosphatase inhibitor mixtures I and II (Calbiochem). […] Samples were washed three times with lysis buffer containing corresponding compound concentrations of 10 μM. Proteins bound to Affi-Gel 102 resin were reduced, denatured, and separated using Tris-Glycine gels (Novex) and transferred to nitrocellulose membranes using the iBlot transfer system (Novex). Membranes were incubated overnight at 4° C. with primary antibodies against PDE3A (1:1000, Bethyl). […]

[3] = test system: HeLa cells; test: DNMDP cytotoxicity after targeting PDE3A locus using CRISPR; format: cell-based; settings: HeLa infected with Cas9 and sgRNAs against PDE3A
Method: FIG. 11A is a Western blot. HeLa cells were infected with Cas9 and indicated guide RNAs (sgRNA) against PDE3A. Western blots were probed for PDE3A at indicated time points. FIG. 11B is a bar graph showing percent rescue of HeLa cells that were infected with indicated sgRNAs for two weeks and treated with 1 μM of 6-(4-(diethylamino)-3-nitrophenyl)-5-methyl-4,5-dihydropyridazin-3(2H)-one (DNMDP) for 48 hours. Percent rescue was normalized to the Cas9-only control. FIG. 11C is a plot showing viability of cells infected with indicated sgRNAs and treated with various concentrations of 6-(4-(diethylamino)-3-nitrophenyl)-5-methyl-4,5-dihydropyridazin-3(2H)-one (DNMDP).
Based on the observations that DNMDP-sensitive cells expressed high levels of PDE3A, and that DNMDP competed with non-cytotoxic inhibitors for PDE3A binding, it was hypothesized that DNMDP mediated its cytotoxic phenotype through the interaction with PDE3A and that PDE3A abundance was a direct cellular determinant of DNMDP sensitivity. To validate this hypothesis, the effect of reducing levels of PDE3A on the response to DNMDP was tested. […] In an independent approach using an siRNA smart-pool containing four different siRNAs targeting PDE3A, PDE3A expression was reduced in HeLa cell line with a maximum efficiency of 70% between 24 and 72 hours after transfection. […]

[4] = test system: HeLa cells; format: cell-based; settings: 48 hours; for rescue of DNMDP cytotoxicity / competition with DNMDP: dose-response up to 10 μM, co-treated with DNMDP; for rescue of cell death induced by DNMDP, rank in bioactives screen: 20 μM compound + 30 nM DNMDP, 1600 compounds
Method: HeLa cells were co-treated with 30 nM DNMDP (the EC70 concentration) and 20 μM of each bioactive compound. Cell viability after 48-hour treatment was assessed by ATP consumption as described earlier.
1000 HeLa cells were plated in a 384-well plate in 40 μl of DMEM supplemented with 10% Fetal Bovine Serum and 1% Pen/Strep. 24 hours after plating, a compound-library of 1600 bioactive molecules (Pharmacon) was added at a concentration of 20 μM. In parallel to bioactive compound incubation, DNMDP was added to a final concentration of 30 nM and incubated for 48 hours. Cell viability was assessed as described in Compound library screening in NCI-H1734 and A549 cell lines.

[5] = target: T1, PDE3A(677-1141) (Homo sapiens, UniProt Q14432); test: Differential scanning fluorimetry (DSF) binding; settings: 5 μM protein, 100 μM compound
T1 construct: purified PDE3A catalytic domain, PDE3A(677-1141)
T1 sequence (Q14432 677-1141): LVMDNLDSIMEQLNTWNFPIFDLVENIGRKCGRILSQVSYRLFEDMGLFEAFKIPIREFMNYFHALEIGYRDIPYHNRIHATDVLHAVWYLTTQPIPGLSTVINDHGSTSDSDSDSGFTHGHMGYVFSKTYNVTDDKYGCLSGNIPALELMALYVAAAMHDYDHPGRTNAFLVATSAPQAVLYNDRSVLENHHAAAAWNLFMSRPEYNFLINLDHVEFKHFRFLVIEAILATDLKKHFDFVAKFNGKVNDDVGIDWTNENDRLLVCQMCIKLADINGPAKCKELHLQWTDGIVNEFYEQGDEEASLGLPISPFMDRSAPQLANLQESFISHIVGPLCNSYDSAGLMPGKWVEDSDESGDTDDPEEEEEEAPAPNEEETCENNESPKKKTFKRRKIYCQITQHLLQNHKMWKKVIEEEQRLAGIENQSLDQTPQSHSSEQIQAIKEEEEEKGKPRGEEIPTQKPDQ
Method: Binding buffer: 20 mM Hepes pH 7.4, 100 μM TCEP, 1 mM MgCl2, 150 mM NaCl.

[6] = target: T2, PDE3A and SLFN12 (Homo sapiens, UniProt Q14432); test: Validation of DNMDP-induced PDE3A protein interactions using immunoprecipitation and immunoblotting; format: cell-based; settings: FIG. 20, affinity reagents, immunoblot
T2 construct: Endogenous PDE3A was immunoprecipitated; host or cells: HeLa
T2 sequence (Q14432 whole entry): as the sequence (Q14432 whole entry) above
T2 sequence (Q8IYM2 whole entry partner): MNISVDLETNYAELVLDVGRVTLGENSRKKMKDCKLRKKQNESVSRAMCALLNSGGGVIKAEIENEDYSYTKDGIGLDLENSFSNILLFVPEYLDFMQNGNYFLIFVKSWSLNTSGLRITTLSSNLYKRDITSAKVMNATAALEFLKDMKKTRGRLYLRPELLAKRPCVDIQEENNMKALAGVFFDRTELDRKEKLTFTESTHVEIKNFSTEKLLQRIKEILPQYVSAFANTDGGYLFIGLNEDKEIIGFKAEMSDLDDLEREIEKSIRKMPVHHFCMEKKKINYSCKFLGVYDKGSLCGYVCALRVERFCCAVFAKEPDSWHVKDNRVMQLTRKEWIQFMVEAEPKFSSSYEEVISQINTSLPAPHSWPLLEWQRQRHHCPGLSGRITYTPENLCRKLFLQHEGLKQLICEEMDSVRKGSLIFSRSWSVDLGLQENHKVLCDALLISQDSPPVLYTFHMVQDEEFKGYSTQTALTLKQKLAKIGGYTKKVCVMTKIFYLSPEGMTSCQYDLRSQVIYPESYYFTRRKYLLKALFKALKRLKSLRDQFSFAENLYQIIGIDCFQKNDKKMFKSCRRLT
Method: FIG. 19 is an immunoblot showing that DNMDP induces interaction between PDE3A and SIRT7 and SLFN12 in HeLa cells. HeLa cells were transfected with indicated plasmids and treated with indicated compounds with a final concentration of 10 μM for four hours. Endogenous PDE3A was immunoprecipitated and immunoblotted for V5 to identify novel interaction with SIRT7 and SLFN12 (upper two panels). Immunoprecipitate input was immunoblotted for PDE3A and V5 (lower two panels). V5-SLFN12 was undetectable in whole cell lysate.
FIG. 20 is an immunoblot showing confirmation of mass spectrometric results herein using affinity reagents.
HeLa cells were transfected with ORF overexpression constructs expressing V5-tagged SIRT7, V5-tagged SLFN12, or V5-tagged GFP. ORF expression constructs were obtained from the TRC (clone IDs: TRCN0000468231, TRCN0000476272, ccsbBroad304_99997). At 72 hours post transfection, cells were treated with 10 μM DNMDP or trequinsin for 4 hours followed by lysis using the ModRipa lysis buffer and immunoprecipitation of PDE3A. For each condition, 2 mg total protein lysate was incubated with 1 μg of anti-PDE3A antibody at 4° C. overnight, after which 7.5 μl each of Protein A- and Protein G-Dynabeads (Life Technologies 10001D and 10003D) were added and incubated for another 1 hour. Beads were washed and bound proteins were eluted with 30 μl of LDS PAGE gel loading buffer. Input (˜60 μg total protein lysate) and IP products were resolved on 4-12% Tris-Glycine PAGE gels and immunoblotted with an anti-V5 antibody (Life Technologies R96205, 1:5000), the Bethyl anti-PDE3A antibody (1:1000), and secondary antibodies from LiCOR Biosciences (Cat.#926-32210 and 926068021, each at 1:10,000). Blots were washed and imaged using a LiCOR Odyssey infrared imager.

## CCN(CC)c1ccc(C2=NNC(=O)C[C@H]2C)cc1[N+](=O)[O-] [(R)-DNMDP, (R)-6-(4-(diethylamino)-3-nitrophenyl)-5-methyl-4,5-dihydropyridazin-3(2H)-one]
[1]
  effect on HeLa cell viability / cytotoxicity: cytotoxic
  fold lower EC50 compared to the (S)-enantiomer: 500 fold
[2]
  blocking of binding of PDE3A to the tethered linker analogue: blocked

## CCN(CC)c1ccc(C2=NNC(=O)C[C@@H]2C)cc1[N+](=O)[O-] [(S)-DNMDP]
[1]
  effect on HeLa cell viability / cytotoxicity: non-cytotoxic

## C[C@@H]1CC(=O)NN=C1c1ccc(N2CCOCC2)cc1 [Compound 3]
[3]
  rescue of toxicity by PDE3A sgRNA2 and sgRNA3: significant rescue of toxicity

## CCN(CCOCCOCCNC(=O)OC(C)(C)C)c1ccc(C2=NNC(=O)C[C@H]2C)cc1 [DNMDP-2L, tert-butyl (R)-(2-(2-(2-(ethyl(4-(4-methyl-6-oxo-1,4,5,6-tetrahydropyridazin-3-yl)phenyl)amino)ethoxy)ethoxy)ethyl)carbamate]
[4]
  rescue of DNMDP cytotoxicity / competition with DNMDP: same DNMDP cytotoxicity rescue phenotype as non-cytotoxic PDE3 inhibitors

## O=C1CN2Cc3c(ccc(Cl)c3Cl)N=C2N1 [anagrelide, 6,7-dichloro-1,5-dihydroimidazo (2,1-b)quinazolin-2(3H)-one]
[5]
  Tm (° C.): 56.6 ± 0.0 °C
  ΔTm at 100 µM: 4.2 °C
[6]
  PDE3A and SLFN12 complex formation: weakly

## CN(C(=O)CCCOc1ccc2[nH]c(=O)ccc2c1)C1CCCCC1 [cilostamide]
[4]
  rescue of DNMDP cytotoxicity / competition with DNMDP: able to rescue DNMDP cytotoxicity in a dose-dependent manner

## O=C1CCc2cc(OCCCCc3nnnn3C3CCCCC3)ccc2N1 [cilostazol, 6-[4-(1-cyclohexyl-1H-tetrazol-5-yl)butoxy]-3,4-dihydro-2(1H)-quinolinone]
[4]
  rescue of cell death induced by DNMDP, rank in bioactives screen: three most potent compounds

## CC(C)C(=O)c1c(C(C)C)nn2ccccc12 [idubulast]
[4]
  rescue of DNMDP cytotoxicity / competition with DNMDP: not effective competitors

## Cc1[nH]c(=O)c(C#N)cc1-c1ccncc1 [milrinone, 2-methyl-6-oxo-1,6-dihydro-3,4′-bipyridine-5-carbonitrile]
[4]
  rescue of cell death induced by DNMDP, rank in bioactives screen: three most potent compounds
  rescue of DNMDP cytotoxicity / competition with DNMDP: able to rescue DNMDP cytotoxicity in a dose-dependent manner

## CCCc1nn(C)c2c(=O)[nH]c(-c3cc(S(=O)(=O)N4CCN(C)CC4)ccc3OCC)nc12 [sildenafil, 1-[4-ethoxy-3-(6,7-dihydro-1-methyl-7-oxo-3-propyl-1H-pyrazolo[4,3-d]pyrimidin-5-yl)phenylsulfonyl]-4-methylpiperazine]
[4]
  rescue of DNMDP cytotoxicity / competition with DNMDP: not effective competitors

## CCCc1nc(C)c2c(=O)[nH]c(-c3cc(S(=O)(=O)N4CCN(CC)CC4)ccc3OCC)nn12 [vardenafil, 4-[2-ethoxy-5-(4-ethylpiperazin-1-yl)sulfonyl-phenyl]-9-methyl-7-propyl-3,5,6,8-tetrazabicyclo[4.3.0]nona-3,7,9-trien-2-one]
[4]
  rescue of DNMDP cytotoxicity / competition with DNMDP: not effective competitors
